Legend:
[1] = tested on: CD45+/CD11b+/Ly6Clow/CX3CR1high anti-inflammatory monocytes (AM); test: Transwell migration of sorted anti-inflammatory monocytes after FTY720 pre-treatment; format: cell-based, mouse; conditions: FIG. 6A
From the text: (§1) CD45^+/CD11b^+/Ly6C^low/CX3CR1^high anti-inflammatory monocytes (AM) and CD45^+/CD11b^+/Ly6C^high/CX3CR1^low inflammatory monocytes (IM) (FIG. 6C) were sorted from mouse marrow. […] In vivo, in tissue from the murine dorsal skinfold window chamber, the recruitment of IMs to dorsal tissue was attenuated with local FTY720 application from PLAGA films (FIG. 6D). Cells that are CD45^+/CD11b^+/Ly6C^high/CX3CR1^low/CD105^+ and have a decreasing expression of Sca1 (a progenitor cell marker) are consistent with endothelial progenitor derived endothelial cells (EPC-ECs). […] Local FTY720 stimulation attenuates the infiltration of inflammatory cells and recruits regenerative stem cells. (See FIGS. 3-6).

[2] = tested on: CD45+/CD11b+/Ly6Chigh/CX3CR1low inflammatory monocytes (IM); test: Transwell migration of sorted inflammatory monocytes after FTY720 pre-treatment; format: cell-based, mouse; conditions: FIG. 6B
From the text: as §1

dorsal tissue = test: Murine dorsal skinfold window chamber with PLAGA films, flow cytometry of dorsal tissue; format: in vivo, mouse; conditions: local application from PLAGA films
Protocol: (§2) 1 mm poly(lactic-co-glycolic acid) PLAGA films loaded with S1P receptor compounds are placed within the window chamber as shown. Repeated measurements of the same vessel networks are recorded and quantified over a 7-day time course using intravital microscopy. (FIG. 3).
(§3) Backpacks were implanted with PLAGA films and collagenase was used to digest dorsal tissue directly around the implants after 3 days to create single cell suspensions. Flow cytometry was used to assess cellular content. A feeder artery to the spinotrapezius muscle was ligated, creating an ischemic environment, and confocal microscopy on whole-mounted tissue was used to assess CX3CR1 expression in the muscle (FIG. 5).

[3] = tested on: ischemic spinotrapezius muscle; test: Arterial ligation of spinotrapezius muscle with PLAGA film implantation, confocal microscopy; format: in vivo, mouse; conditions: FIG. 7
From the text: as §3

dorsal microvasculature [4] = test: Murine dorsal skinfold window chamber, intravital microscopy of microvascular remodeling; format: in vivo, mouse; conditions: S1P3 selectively antagonized on marrow-derived cells (BM S1P3−/−); 3 days post-implantation; FIG. 8
Protocol: as §2

[5] = tested on: Lineage1−/Sca1+/c-kit+ (LSK) hematopoietic stem cells; test: Transwell migration of sorted LSK hematopoietic stem cells toward SDF-1 and S1P; format: cell-based, mouse; conditions: cells pre-treated with compound (15 nM for VPC01091, VPC01211)
Protocol: Whole bone marrow cells were harvested from C57Bl/6 mice tibiae. They were pre-labeled with antibodies against Lineage 1, Sca1, and c-kit and the LSK subset were sorted, serum starved, and plated at equal concentration after pre-treatment with FTY720. Migration toward media, SDF1, and S1P was calculated.
Hematopoietic stem cell migration was also studied (FIG. 17). Lineage1−/Sca1+/c-kit+ (LSK) hematopoietic stem cells were sorted and serum starved for two hours. Cells were pre-treated with 15 nM VPC01211 or not and plated for transwell migration assays toward plain media, SDF-1 or S1P.

dorsal microvasculature [6] = conditions: sustained release from 50:50 PLAGA films (1:200 wt/wt); cited from earlier work
[7] = in vivo; cited from earlier work
[8] = tested on: critical size calvarial bone defects; conditions: 3D PLAGA scaffolds delivering FTY720; cited from earlier work
bone marrow cells = test: Transwell migration of bone marrow cells toward SDF-1; format: cell-based, rat; conditions: pre-treated 10 ng/ml 30 minutes
Protocol: Bone marrow cells were collected from the tibia of Sprague Daley rats (Charles River), scrum starved for 2 hours, and the cell suspension at 2×10^6 cells/ml was pre-treated with serum-free medium, or 10 ng/ml FTY720-P (Cayman) for 30 minutes and then were re-suspended in serum-free DMEM (Invitrogen). 100 μl of the pre-treated cell suspension was added to the top of 5 μm transwell inserts (Costar) in a 24-well plate. The bottom of the wells contained 600 μl of serum-free DMEM or 12.5 nM SDF-1 (ProspecBio). The cells were incubated at 37° C. for 4 hours, and then the number of cells at the top and the bottom of the transwells were counted using an automatic cell counter. The cells that migrated toward SDF-1 after pre-treatment with FTY720-P were collected from the bottom of the transwells and treated with monoclonal antibodies to CD45, CD11b and CD90 prior to flow analysis. Flow cytometry was performed according to standard procedures and was analyzed on a 9 color CyAn flow cytometer.

[9] = in the absence of a carrier protein; cited from earlier work
5 mm cranial defects = test: Rat cranial critical size bone defect, microCT and flow cytometry; format: in vivo
Protocol: 5 mm cranial defects were made in 36 nine weeks old Sprague Daley rats, which were divided into 4 groups (n=9). The rats were treated with a systemic dose of 1 mpk VPC01091, FTY720 coated semi-circular allograft, FTY720 coated semi-circular allograft+a systemic dose of 1 mpk VPC01091 or left untreated. VPC01091 was given the day after surgery and 3 weeks post-surgery. Hemavet (Drew Scientifics) was used to measure the concentrations of blood cells at days 0, week 1 and week 2 (n=6) (data not shown). The amount of bone regeneration was measured bi-weekly with microCT imaging (n=3-9). Flow cytometry was performed according to standard procedures on the tissue harvested from the defect sites at week 3 (n=3), and from peripheral blood at week 6 (n=3). Monoclonal antibodies (Invitrogen, Abeam) for rat CD45, CD11b, CD54, CD90 were used in both cases. Mason's Trichrome and H&E staining were done for done for all groups (n=3).

S1P1 receptor = S1P1 receptor (Homo sapiens, UniProt P21453); conditions: cited from earlier work
S1P3 receptor = S1P3 receptor (Homo sapiens, UniProt Q99500); conditions: cited from earlier work
donor (GFP+) cells = test: Bone marrow transplant after lethal irradiation with equal number of mobilized cells; conditions: two-week chimerism after competitive BMT with equal numbers of mobilized cells; FIG. 10D
Protocol: WT mice were irradiated & reconstituted with mobilized peripheral blood cells from GFP+ mice. After varying amounts of time, blood was collected via the retro-orbital sinus and bone marrow was harvested to assess chimerism over time.
100 μL blood was plated on methocult stem cell differentiation medium and after 6 days colony forming units were quantified. […] Cells tested included—Host cells, PB donor cells and BM donor cells were tested. Treatments included—AMD cells, A+V cells, AMD Sca1+, A+V Sca1+, AMD CD45+, A+V CD45+, AMD CD11b+, and A+V CD11b+.

[10] = tested on: whole BMCs on FBMD-1 stromal cells; test: Cobblestone area-forming cell assay; format: cell-based, mouse; conditions: BMCs pre-treated 30 minutes; FIG. 19
From the text: Ordinate—% Positive Wells.

smooth muscle = conditions: daily injections; cited from earlier work
[11] = PLAGA film, ligated feeder artery

Chain of S1P3 receptor (Q99500 whole entry): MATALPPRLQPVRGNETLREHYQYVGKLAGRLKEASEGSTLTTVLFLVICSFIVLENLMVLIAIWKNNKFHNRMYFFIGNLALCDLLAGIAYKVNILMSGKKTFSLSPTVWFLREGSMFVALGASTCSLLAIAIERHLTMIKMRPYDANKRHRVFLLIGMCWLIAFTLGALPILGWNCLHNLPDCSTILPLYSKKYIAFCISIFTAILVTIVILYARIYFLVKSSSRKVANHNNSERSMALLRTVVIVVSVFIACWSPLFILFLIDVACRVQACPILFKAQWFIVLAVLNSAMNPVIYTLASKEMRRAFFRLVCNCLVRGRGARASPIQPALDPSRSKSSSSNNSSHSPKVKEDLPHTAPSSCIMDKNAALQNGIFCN
Chain of S1P1 receptor (P21453 whole entry): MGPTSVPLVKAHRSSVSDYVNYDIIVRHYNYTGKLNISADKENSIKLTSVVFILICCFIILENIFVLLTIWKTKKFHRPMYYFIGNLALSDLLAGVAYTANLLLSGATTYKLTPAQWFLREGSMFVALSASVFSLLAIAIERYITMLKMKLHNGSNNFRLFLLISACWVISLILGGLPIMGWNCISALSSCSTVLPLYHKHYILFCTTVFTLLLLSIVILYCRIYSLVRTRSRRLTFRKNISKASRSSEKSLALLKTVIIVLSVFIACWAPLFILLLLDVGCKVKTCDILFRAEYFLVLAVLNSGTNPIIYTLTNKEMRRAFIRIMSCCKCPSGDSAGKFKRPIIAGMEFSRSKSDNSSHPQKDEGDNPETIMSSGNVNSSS

## CCCCCCCCc1ccc(CCC(N)(CO)CO)cc1 [FTY720, 2-amino-2-[2-(4-octylphenyl)ethyl]propane 1,3-diol]
[1]
  migration of AMs towards SDF-1: increased
[2]
  migration of IMs towards S1P: decreased
  migration of IMs towards SDF-1: decreased
Dorsal tissue
  EPC-ECs in dorsal tissue: increased
Dorsal tissue; FIG. 6D
  recruitment of IMs to dorsal tissue: attenuated
[3]; CX3CR1-eGFP mice
  recruitment of vessel-associated CX3CR1+ cells: recruitment of vessel-associated CX3CR1+ cells
[3]; [11]
  remodeling in ischemic muscle: induces remodeling in ischemic muscle
  tortuosity of vessels: promotes tortuosity of vessels
Dorsal microvasculature [4]
  FTY720-induced microvascular remodeling: impaired
[5]
  HSC migration / homing toward S1P: abolishes
  HSC migration / homing toward SDF-1: improves
Dorsal microvasculature [6]
  arteriole formation and enlargement: promotes formation of new arterioles and structural enlargement of existing arterioles
[7]
  half-life: approximately 7 days
[8]
  osseous tissue ingrowth: significantly increases
  proportion of mature smooth muscle cell-invested microvessels within the bony defect: significantly increases

## CCCCCCCCc1ccc(CC[C@](N)(CO)COP(=O)(O)O)cc1 [FTY720-P]
Bone marrow cells; 12.5 nM SDF-1, 4 hours, FIG. 11E
  total number of cells migrating toward SDF-1: significantly increased
Bone marrow cells; FIG. 11F
  percentage of CD90+; CD45−/CD11b− cells migrating toward SDF-1: higher percentage

## CCCCCCCCCCCCC/C=C/[C@@H](O)[C@@H](N)COP(=O)(O)O [S1P, Sphingosine 1-phosphate]
[7]
  half-life in blood: less than 1 hour
[9]
  solubility in aqueous solutions: insoluble

## CCCCCCCCc1ccc(C2CCC(N)(CO)C2)cc1 (stereo not shown) [VPC01091]
[5]
  HSC migration / homing toward S1P: sensitized
  HSC migration / homing toward SDF-1: desensitized
5 mm cranial defects; systemic 1 mpk, day after surgery and 3 weeks post-surgery, microCT, FIG. 11
  bone regeneration compared to the empty defect controls: substantial bi-weekly increase
5 mm cranial defects; week 3, FIG. 12a
  percentage of CD54 and CD90 positive cells in the defect region: increase
5 mm cranial defects; week 6, FIG. 12b
  percentage of CD54 and CD90 positive cells in the blood: increase
S1P1 receptor
  activity at S1P1 receptor: agonist
S1P3 receptor
  activity at S1P3 receptor: antagonist
Donor (GFP+) cells
  engraftment and repopulation efficiency in vivo: does not impair

## CCCCCCCCc1ccc(C2CCC(N)(COP(=O)(O)O)C2)cc1 (stereo not shown) [VPC01211]
[5]
  HSC migration / homing toward S1P: did not affect
  HSC migration / homing toward SDF-1: abrogated
[10]
  adhesion / engraftment on bone marrow stromal cell layer: less engraftment than AMD3100

## CCCCCCCCc1cccc(NC(=O)[C@H](N)CCP(=O)(O)O)c1 [VPC44116]
Smooth muscle
  smooth muscle proliferation and migration: significantly decreased

Source: patent publication US9682078B2, “Compositions and methods for tissue engineering and cell based therapies” (University of Virginia Patent Foundation, priority 2011, dated 2017)
